Reference: patent publication US20230257396A1, “MACROCYCLES AND THEIR USE” (BLOSSOMHILL THERAPEUTICS, INC., priority 2020, published 2023)

Experiments:
Assay in all cases: KINOMEscan kinase binding assay (Eurofins/DiscoveRx), % Ctrl
kinases [1] = molecular target: T1, kinases (Homo sapiens, UniProt P07949, V804L)
T1 construct: purchased Eurofins/DiscoveRx; host or cells: E. coli BL21-derived host (T7 phage display) for most kinases; HEK-293 for the rest
In short: (§1)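 Read-out is qPCR of kinase eluted from ligand-coated streptavidin beads after 1 h room-temperature competition with test compound. Values are % Ctrl at the tested concentration, lower meaning tighter binding.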

kinases [2] = molecular target: T2, kinases (Homo sapiens, UniProt P00519, H396P)
T2 construct: purchased Eurofins/DiscoveRx; host or cells: E. coli BL21-derived host (T7 phage display) for most kinases; HEK-293 for the rest
In short: as §1

kinases [3] = molecular target: T3, kinases (Homo sapiens, UniProt P00533)
T3 construct: purchased Eurofins/DiscoveRx; host or cells: E. coli BL21-derived host (T7 phage display) for most kinases; HEK-293 for the rest
In short: as §1

kinases [4] = molecular target: T4, kinases (Homo sapiens, UniProt P00519, E255K)
T4 construct: purchased Eurofins/DiscoveRx; host or cells: E. coli BL21-derived host (T7 phage display) for most kinases; HEK-293 for the rest
In short: as §1

kinases [5] = molecular target: T5, kinases (Homo sapiens, UniProt P36888, D835V)
T5 construct: purchased Eurofins/DiscoveRx; host or cells: E. coli BL21-derived host (T7 phage display) for most kinases; HEK-293 for the rest
T5 sequence (P36888 27-993 D835V): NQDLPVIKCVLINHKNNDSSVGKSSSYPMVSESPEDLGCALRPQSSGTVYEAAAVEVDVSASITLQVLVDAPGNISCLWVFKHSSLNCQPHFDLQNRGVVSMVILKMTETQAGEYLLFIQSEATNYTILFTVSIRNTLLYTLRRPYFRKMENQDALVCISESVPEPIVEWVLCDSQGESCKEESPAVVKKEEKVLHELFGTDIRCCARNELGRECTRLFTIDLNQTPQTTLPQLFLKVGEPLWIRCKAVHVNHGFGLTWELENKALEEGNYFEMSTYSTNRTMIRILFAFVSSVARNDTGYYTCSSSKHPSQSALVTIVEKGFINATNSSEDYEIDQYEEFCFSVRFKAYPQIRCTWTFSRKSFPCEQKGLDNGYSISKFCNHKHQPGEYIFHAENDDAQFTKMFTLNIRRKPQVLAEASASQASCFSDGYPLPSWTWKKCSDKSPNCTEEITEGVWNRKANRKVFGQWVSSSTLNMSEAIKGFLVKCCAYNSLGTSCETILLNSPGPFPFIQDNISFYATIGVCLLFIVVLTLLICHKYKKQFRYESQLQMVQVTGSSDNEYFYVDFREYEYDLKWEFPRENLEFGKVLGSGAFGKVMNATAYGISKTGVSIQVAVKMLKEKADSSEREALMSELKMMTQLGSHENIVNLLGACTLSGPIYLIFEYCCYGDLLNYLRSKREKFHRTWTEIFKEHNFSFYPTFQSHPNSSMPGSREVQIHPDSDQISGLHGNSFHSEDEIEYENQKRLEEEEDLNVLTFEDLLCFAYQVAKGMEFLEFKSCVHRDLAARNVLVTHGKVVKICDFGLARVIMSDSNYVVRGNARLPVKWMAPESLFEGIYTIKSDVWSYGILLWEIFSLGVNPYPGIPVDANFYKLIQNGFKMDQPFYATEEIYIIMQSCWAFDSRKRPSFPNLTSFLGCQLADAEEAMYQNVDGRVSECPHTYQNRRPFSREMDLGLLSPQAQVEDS
In short: as §1

kinases [6] = molecular target: T6, kinases (Homo sapiens, UniProt P07949)
T6 construct: purchased Eurofins/DiscoveRx; host or cells: E. coli BL21-derived host (T7 phage display) for most kinases; HEK-293 for the rest
T6 sequence (P07949 29-1114): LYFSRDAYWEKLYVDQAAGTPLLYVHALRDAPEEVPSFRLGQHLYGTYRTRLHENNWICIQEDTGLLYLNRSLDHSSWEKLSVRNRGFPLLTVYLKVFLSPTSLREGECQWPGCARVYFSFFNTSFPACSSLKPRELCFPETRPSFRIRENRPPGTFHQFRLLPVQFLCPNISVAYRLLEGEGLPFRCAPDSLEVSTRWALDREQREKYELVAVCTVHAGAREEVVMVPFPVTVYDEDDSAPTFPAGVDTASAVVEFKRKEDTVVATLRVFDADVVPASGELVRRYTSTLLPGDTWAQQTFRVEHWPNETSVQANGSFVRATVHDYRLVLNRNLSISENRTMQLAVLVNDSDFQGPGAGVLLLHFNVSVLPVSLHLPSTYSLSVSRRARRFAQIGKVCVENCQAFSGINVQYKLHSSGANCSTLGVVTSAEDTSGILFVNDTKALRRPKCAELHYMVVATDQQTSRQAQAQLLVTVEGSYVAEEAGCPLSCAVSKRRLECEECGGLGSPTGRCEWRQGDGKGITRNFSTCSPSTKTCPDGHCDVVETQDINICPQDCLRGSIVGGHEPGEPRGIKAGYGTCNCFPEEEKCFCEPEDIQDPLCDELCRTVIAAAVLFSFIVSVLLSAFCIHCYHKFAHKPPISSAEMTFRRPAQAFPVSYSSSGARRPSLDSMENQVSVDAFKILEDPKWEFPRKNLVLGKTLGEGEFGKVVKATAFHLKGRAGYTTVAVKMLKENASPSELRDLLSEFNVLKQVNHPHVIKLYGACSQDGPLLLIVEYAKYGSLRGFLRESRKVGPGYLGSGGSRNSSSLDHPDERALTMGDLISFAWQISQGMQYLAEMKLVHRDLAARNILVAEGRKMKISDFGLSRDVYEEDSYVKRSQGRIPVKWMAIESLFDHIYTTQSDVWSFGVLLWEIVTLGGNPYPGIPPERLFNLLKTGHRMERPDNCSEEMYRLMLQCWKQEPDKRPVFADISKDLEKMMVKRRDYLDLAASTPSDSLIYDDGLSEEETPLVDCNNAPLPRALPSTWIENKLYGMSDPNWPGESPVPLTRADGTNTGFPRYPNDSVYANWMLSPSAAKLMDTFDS
In short: as §1

kinases [7] = molecular target: T7, kinases (Homo sapiens, UniProt P10721, L576P)
T7 construct: purchased Eurofins/DiscoveRx; host or cells: E. coli BL21-derived host (T7 phage display) for most kinases; HEK-293 for the rest
T7 sequence (P10721 26-976 L576P): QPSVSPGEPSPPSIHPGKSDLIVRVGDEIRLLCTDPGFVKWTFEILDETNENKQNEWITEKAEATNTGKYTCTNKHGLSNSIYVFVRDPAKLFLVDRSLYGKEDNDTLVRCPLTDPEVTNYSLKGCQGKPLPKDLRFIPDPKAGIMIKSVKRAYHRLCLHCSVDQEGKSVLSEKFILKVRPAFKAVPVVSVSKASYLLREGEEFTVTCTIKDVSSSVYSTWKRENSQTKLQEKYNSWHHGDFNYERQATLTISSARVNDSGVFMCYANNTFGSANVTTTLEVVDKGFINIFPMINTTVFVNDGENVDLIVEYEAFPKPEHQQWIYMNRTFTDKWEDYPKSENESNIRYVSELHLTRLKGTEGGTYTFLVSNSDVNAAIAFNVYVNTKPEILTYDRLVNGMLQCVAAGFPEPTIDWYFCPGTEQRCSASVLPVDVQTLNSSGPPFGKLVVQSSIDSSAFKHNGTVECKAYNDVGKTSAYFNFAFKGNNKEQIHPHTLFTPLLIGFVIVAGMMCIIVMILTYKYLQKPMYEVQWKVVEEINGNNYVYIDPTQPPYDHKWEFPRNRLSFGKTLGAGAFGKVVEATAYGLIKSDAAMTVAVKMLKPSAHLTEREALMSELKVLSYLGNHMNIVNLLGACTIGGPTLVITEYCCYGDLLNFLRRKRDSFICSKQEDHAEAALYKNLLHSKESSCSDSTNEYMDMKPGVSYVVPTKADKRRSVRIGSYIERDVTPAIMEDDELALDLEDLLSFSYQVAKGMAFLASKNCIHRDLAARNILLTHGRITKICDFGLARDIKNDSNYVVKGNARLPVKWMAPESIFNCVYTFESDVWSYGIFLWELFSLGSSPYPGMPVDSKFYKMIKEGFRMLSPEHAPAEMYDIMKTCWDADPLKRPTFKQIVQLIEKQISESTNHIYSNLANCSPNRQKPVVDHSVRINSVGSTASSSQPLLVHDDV
In short: as §1

kinases [8] = molecular target: T8, kinases (Homo sapiens, UniProt P00533, L861Q)
T8 construct: purchased Eurofins/DiscoveRx; host or cells: E. coli BL21-derived host (T7 phage display) for most kinases; HEK-293 for the rest
In short: as §1

kinases [9] = molecular target: T9, kinases (Homo sapiens, UniProt P00519, Y253F)
T9 construct: purchased Eurofins/DiscoveRx; host or cells: E. coli BL21-derived host (T7 phage display) for most kinases; HEK-293 for the rest
In short: as §1

kinases [10] = molecular target: T10, kinases (Homo sapiens, UniProt P00533, G719S)
T10 construct: purchased Eurofins/DiscoveRx; host or cells: E. coli BL21-derived host (T7 phage display) for most kinases; HEK-293 for the rest
In short: as §1

kinases [11] = molecular target: T11, kinases (Homo sapiens, UniProt P00533, T790M)
T11 construct: purchased Eurofins/DiscoveRx; host or cells: E. coli BL21-derived host (T7 phage display) for most kinases; HEK-293 for the rest
In short: as §1

kinases [12] = molecular target: T12, kinases (Homo sapiens, UniProt P42684)
T12 construct: purchased Eurofins/DiscoveRx; host or cells: E. coli BL21-derived host (T7 phage display) for most kinases; HEK-293 for the rest
T12 sequence (P42684 whole entry): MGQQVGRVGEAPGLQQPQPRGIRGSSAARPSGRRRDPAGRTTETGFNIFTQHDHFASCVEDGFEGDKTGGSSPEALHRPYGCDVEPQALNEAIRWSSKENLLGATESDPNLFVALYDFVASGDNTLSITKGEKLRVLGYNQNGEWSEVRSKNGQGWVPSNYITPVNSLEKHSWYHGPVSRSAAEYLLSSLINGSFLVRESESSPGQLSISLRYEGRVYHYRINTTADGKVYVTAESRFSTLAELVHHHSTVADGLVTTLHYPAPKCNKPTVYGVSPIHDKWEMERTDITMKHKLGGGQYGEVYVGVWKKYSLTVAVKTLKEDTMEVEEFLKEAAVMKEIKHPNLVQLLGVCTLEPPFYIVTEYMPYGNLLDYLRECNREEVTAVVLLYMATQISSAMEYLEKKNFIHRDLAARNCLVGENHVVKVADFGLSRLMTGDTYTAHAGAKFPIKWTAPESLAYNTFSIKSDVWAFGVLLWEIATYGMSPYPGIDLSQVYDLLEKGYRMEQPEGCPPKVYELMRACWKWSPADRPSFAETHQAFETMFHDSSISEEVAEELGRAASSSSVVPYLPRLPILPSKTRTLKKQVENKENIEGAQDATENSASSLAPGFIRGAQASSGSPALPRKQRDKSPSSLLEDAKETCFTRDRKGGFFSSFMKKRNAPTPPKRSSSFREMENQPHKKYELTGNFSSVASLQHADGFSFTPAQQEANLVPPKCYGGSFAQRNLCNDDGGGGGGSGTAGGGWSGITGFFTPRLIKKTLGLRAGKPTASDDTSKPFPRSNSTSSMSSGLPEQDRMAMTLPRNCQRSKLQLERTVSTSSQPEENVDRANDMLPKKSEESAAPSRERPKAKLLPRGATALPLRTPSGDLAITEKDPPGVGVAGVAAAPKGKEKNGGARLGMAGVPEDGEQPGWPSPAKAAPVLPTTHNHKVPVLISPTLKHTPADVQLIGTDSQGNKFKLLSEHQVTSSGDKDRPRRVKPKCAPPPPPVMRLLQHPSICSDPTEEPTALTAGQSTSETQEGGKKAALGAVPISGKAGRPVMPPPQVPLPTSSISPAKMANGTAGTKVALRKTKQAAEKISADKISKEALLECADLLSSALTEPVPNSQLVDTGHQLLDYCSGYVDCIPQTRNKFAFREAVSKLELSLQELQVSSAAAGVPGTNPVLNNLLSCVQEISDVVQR
In short: as §1

kinases [13] = molecular target: T13, kinases (Homo sapiens, UniProt P00519, Q252H)
T13 construct: purchased Eurofins/DiscoveRx; host or cells: E. coli BL21-derived host (T7 phage display) for most kinases; HEK-293 for the rest
In short: as §1

kinases [14] = molecular target: T14, kinases (Homo sapiens, UniProt P00519, M351T)
T14 construct: purchased Eurofins/DiscoveRx; host or cells: E. coli BL21-derived host (T7 phage display) for most kinases; HEK-293 for the rest
In short: as §1

kinases [15] = molecular target: T15, kinases (Homo sapiens, UniProt P10721, D816H)
T15 construct: purchased Eurofins/DiscoveRx; host or cells: E. coli BL21-derived host (T7 phage display) for most kinases; HEK-293 for the rest
T15 sequence (P10721 26-976 D816H): as the sequence (P10721 26-976 L576P) above, with P551L, D791H counted along it
In short: as §1

[16] = 1 μM; ABL1(H396P)-nonphosphorylated
[17] = 1 μM; ABL1(H396P)-phosphorylated
[18] = 1 μM; ABL1(E255K)-phosphorylated
[19] = 1 μM; ABL1(Y253F)-phosphorylated
[20] = 1 μM; ABL1(Q252H)-nonphosphorylated
[21] = 1 μM; ABL1(Q252H)-phosphorylated
[22] = 1 μM; ABL1(M351T)-phosphorylated

T1 sequence (P07949 29-1114 V804L): as the sequence (P07949 29-1114) above, with V776L counted along it

Structure (SMILES)	% Ctrl, RET(V804L) (kinases [1]; 1 μM; RET(V804L))	% Ctrl, ABL1(H396P)-nonphosphorylated (kinases [2]; [16])	% Ctrl, ABL1(H396P)-phosphorylated (kinases [2]; [17])	% Ctrl, EGFR (kinases [3]; 1 μM; EGFR)	% Ctrl, ABL1(E255K)-phosphorylated (kinases [4]; [18])	% Ctrl, FLT3(D835V) (kinases [5]; 1 μM; FLT3(D835V))	% Ctrl, RET (kinases [6]; 1 μM; RET)	% Ctrl, KIT(L576P) (kinases [7]; 1 μM; KIT(L576P))	% Ctrl, EGFR(L861Q) (kinases [8]; 1 μM; EGFR(L861Q))	% Ctrl, ABL1(Y253F)-phosphorylated (kinases [9]; [19])	% Ctrl, EGFR(G719S) (kinases [10]; 1 μM; EGFR(G719S))	% Ctrl, EGFR(T790M) (kinases [11]; 1 μM; EGFR(T790M))	% Ctrl, ABL2 (kinases [12]; 1 μM; ABL2)	% Ctrl, ABL1(Q252H)-nonphosphorylated (kinases [13]; [20])	% Ctrl, ABL1(Q252H)-phosphorylated (kinases [13]; [21])	% Ctrl, ABL1(M351T)-phosphorylated (kinases [14]; [22])	% Ctrl, KIT(D816H) (kinases [15]; 1 μM; KIT(D816H))	other results
Cc1cc2c([nH]1)/C=C1\C(=O)Nc3ccc(cc31)CN(C)C(=O)COCCNC2=O [Ex.111, [17a(18)Z]-2,11-dimethyl-6,7,11,12-tetrahydro-1H-13,15-(ethanediylidene)dipyrrolo[3,2-f:3′,4′-i][1,4,14]oxadiazacyclohexadecine-4,10,17(5H,9H,16H)-trione]	71 % Ctrl	62 % Ctrl	61 % Ctrl	74 % Ctrl	42 % Ctrl	1.5 % Ctrl	94 % Ctrl	98 % Ctrl	64 % Ctrl	58 % Ctrl	77 % Ctrl	68 % Ctrl	100 % Ctrl	75 % Ctrl	57 % Ctrl	98 % Ctrl	7 % Ctrl	
Cc1cc2c([nH]1)/C=C1\C(=O)Nc3ccc(cc31)-c1c(C)nn(C)c1COCCN(C)C2=O [Ex. 146, [3a(4)Z]-6,9,14,16-tetramethyl-10,11,13,14-tetrahydro-2H-1,17-(ethanediylidene)pyrazolo[4,3-m]dipyrrolo[3,2-f:3′,4′-i][1,4]oxazacyclopentadecine-3,8(5H,9H)-dione]																		% Ctrl, RET(V804L) (kinases [1]; target RET(V804L); 1 μM): 3 % Ctrl; % Ctrl, ABL1(H396P)-nonphosphorylated (kinases [2]; target ABL1(H396P)-nonphosphorylated; 1 μM): 50 % Ctrl; % Ctrl, ABL1(H396P)-phosphorylated (kinases [2]; target ABL1(H396P)-phosphorylated; 1 μM): 80 % Ctrl; % Ctrl, EGFR (kinases [3]; target EGFR; 1 μM): 51 % Ctrl; % Ctrl, ABL1(E255K)-phosphorylated (kinases [4]; target ABL1(E255K)-phosphorylated; 1 μM): 57 % Ctrl; % Ctrl, FLT3(D835V) (kinases [5]; target FLT3(D835V); 1 μM): 0.2 % Ctrl; % Ctrl, RET (kinases [6]; target RET; 1 μM): 45 % Ctrl; % Ctrl, KIT(L576P) (kinases [7]; target KIT(L576P); 1 μM): 90 % Ctrl; % Ctrl, EGFR(L861Q) (kinases [8]; target EGFR(L861Q); 1 μM): 89 % Ctrl; % Ctrl, ABL1(Y253F)-phosphorylated (kinases [9]; target ABL1(Y253F)-phosphorylated; 1 μM): 89 % Ctrl; % Ctrl, EGFR(G719S) (kinases [10]; target EGFR(G719S); 1 μM): 84 % Ctrl; % Ctrl, EGFR(T790M) (kinases [11]; target EGFR(T790M); 1 μM): 57 % Ctrl; % Ctrl, ABL2 (kinases [12]; target ABL2; 1 μM): 83 % Ctrl; % Ctrl, ABL1(Q252H)-nonphosphorylated (kinases [13]; target ABL1(Q252H)-nonphosphorylated; 1 μM): 74 % Ctrl; % Ctrl, ABL1(Q252H)-phosphorylated (kinases [13]; target ABL1(Q252H)-phosphorylated; 1 μM): 93 % Ctrl; % Ctrl, ABL1(M351T)-phosphorylated (kinases [14]; target ABL1(M351T)-phosphorylated; 1 μM): 67 % Ctrl; % Ctrl, KIT(D816H) (kinases [15]; target KIT(D816H); 1 μM): 100 % Ctrl
Cc1cc2c([nH]1)/C=C1\C(=O)Nc3cnc(nc31)N(C)CCCOCCN(C)C2=O [Ex.71, [17a(18)Z]-2,5,12-trimethyl-6,7,9,10,11,12-hexahydro-1H-13,15-(azenometheno)dipyrrolo[3,2-f:3′,4′-i][1,4,11,13]oxatriazacyclohexadecine-4,17(5H,16H)-dione]	95 % Ctrl	100 % Ctrl	98 % Ctrl	95 % Ctrl	85 % Ctrl	100 % Ctrl	96 % Ctrl	100 % Ctrl	80 % Ctrl	91 % Ctrl	76 % Ctrl	100 % Ctrl	100 % Ctrl	97 % Ctrl	100 % Ctrl	100 % Ctrl	100 % Ctrl	
Cc1cc2c([nH]1)/C=C1\C(=O)Nc3ccc(cc31)OCCOCCN(C)C2=O [Ex.91, [16a(17)Z]-2,5-dimethyl-6,7,9,10-tetrahydro-1H-12,14-(ethanediylidene)dipyrrolo[3,2-i:3′,4′-l][1,4,7]dioxazacyclopentadecine-4,16(5H,15H)-dione]	3.8 % Ctrl	0.55 % Ctrl	15 % Ctrl	99 % Ctrl	14 % Ctrl	0.05 % Ctrl	4.3 % Ctrl	14 % Ctrl	66 % Ctrl	7.8 % Ctrl	87 % Ctrl	82 % Ctrl	32 % Ctrl	2.8 % Ctrl	11 % Ctrl	8.5 % Ctrl	41 % Ctrl	
Cc1cc2c([nH]1)/C=C1\C(=O)Nc3ccc(cc31)-c1cnn(C)c1OCCCN(C)C2=O [Ex. 166, [3a(4)Z]-9,14-dimethyl-9,10,11,12-tetrahydro-14H-1,17-(ethanediylidene)pyrazolo[4,3-n]dipyrrolo[3,2-g:3′,4′-j][1,5]oxazacyclopentadecine-3,8(2H,5H)-dione]																		% Ctrl, RET(V804L) (kinases [1]; 1 μM; target RET(V804L)): 0.3 % Ctrl; % Ctrl, ABL1(H396P)-nonphosphorylated (kinases [2]; 1 μM; target ABL1(H396P)-nonphosphorylated): 0.7 % Ctrl; % Ctrl, ABL1(H396P)-phosphorylated (kinases [2]; 1 μM; target ABL1(H396P)-phosphorylated): 4.3 % Ctrl; % Ctrl, EGFR (kinases [3]; 1 μM; target EGFR): 70 % Ctrl; % Ctrl, ABL1(E255K)-phosphorylated (kinases [4]; 1 μM; target ABL1(E255K)-phosphorylated): 1.8 % Ctrl; % Ctrl, FLT3(D835V) (kinases [5]; 1 μM; target FLT3(D835V)): 1.8 % Ctrl; % Ctrl, RET (kinases [6]; 1 μM; target RET): 7.1 % Ctrl; % Ctrl, KIT(L576P) (kinases [7]; 1 μM; target KIT(L576P)): 34 % Ctrl; % Ctrl, EGFR(L861Q) (kinases [8]; 1 μM; target EGFR(L861Q)): 99 % Ctrl; % Ctrl, ABL1(Y253F)-phosphorylated (kinases [9]; 1 μM; target ABL1(Y253F)-phosphorylated): 11 % Ctrl; % Ctrl, EGFR(G719S) (kinases [10]; 1 μM; target EGFR(G719S)): 99 % Ctrl; % Ctrl, EGFR(T790M) (kinases [11]; 1 μM; target EGFR(T790M)): 26 % Ctrl; % Ctrl, ABL2 (kinases [12]; 1 μM; target ABL2): 51 % Ctrl; % Ctrl, ABL1(Q252H)-nonphosphorylated (kinases [13]; 1 μM; target ABL1(Q252H)-nonphosphorylated): 2.6 % Ctrl; % Ctrl, ABL1(Q252H)-phosphorylated (kinases [13]; 1 μM; target ABL1(Q252H)-phosphorylated): 3.8 % Ctrl; % Ctrl, ABL1(M351T)-phosphorylated (kinases [14]; 1 μM; target ABL1(M351T)-phosphorylated): 3.1 % Ctrl; % Ctrl, KIT(D816H) (kinases [15]; 1 μM; target KIT(D816H)): 10 % Ctrl
